Laboratory results published in ChEMBL document CHEMBL5247659, “Design, Structure-Activity Relationships, and In Vivo Evaluation of Potent and Brain-Penetrant Imidazo[1,2-b]pyridazines as Glycogen Synthase Kinase-3β (GSK-3β) Inhibitors” (J Med Chem, 2023).
One block for each molecule: values may come before it.

Assays:
[1] = Inhibition of N-terminal 6-His tagged human recombinant GSK3-beta H355L mutant using FL-KRREILSRRP[ps]ERYR-NH2 as substrate incubated for 20 hrs
[2] = molecular target: Glycogen synthase kinase-3 alpha (Homo sapiens, UniProt P49840); experiment: Inhibition of full length GST-tagged human recombinant GSK3-alpha using FL-KRREILSRRP[ps]ERYR-NH2 as substrate incubated for 20 hrs
Chain of Glycogen synthase kinase-3 alpha (P49840 whole entry): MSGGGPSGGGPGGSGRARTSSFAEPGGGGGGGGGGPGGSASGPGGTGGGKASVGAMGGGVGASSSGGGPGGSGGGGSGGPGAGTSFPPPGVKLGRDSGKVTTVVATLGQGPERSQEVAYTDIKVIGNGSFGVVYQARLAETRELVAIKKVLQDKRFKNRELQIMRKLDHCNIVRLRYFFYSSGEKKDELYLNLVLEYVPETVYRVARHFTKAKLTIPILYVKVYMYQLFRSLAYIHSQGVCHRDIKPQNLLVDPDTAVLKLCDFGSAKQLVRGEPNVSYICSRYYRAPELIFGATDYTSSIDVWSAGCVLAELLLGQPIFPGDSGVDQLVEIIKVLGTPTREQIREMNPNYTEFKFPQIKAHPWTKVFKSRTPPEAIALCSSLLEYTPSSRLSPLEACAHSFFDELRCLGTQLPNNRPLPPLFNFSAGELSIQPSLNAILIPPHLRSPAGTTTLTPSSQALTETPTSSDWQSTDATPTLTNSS

[3] = Metabolic stability in mouse liver microsomes assessed as parent compound remaining at 0.5 uM incubated for 10 mins by LC-MS/MS analysis; type: ADME, Microsome; conditions: read-out: Stability
[4] = Plasma protein binding in mouse assessed as unbound fraction at 10 uM measured for 5 hrs by equilibrium dialysis based LC-MS/MS analysis; type: ADME, cell-free
[5] = Permeability of compound at pH 5.5 incubated for 4 hrs by PAMPA assay; type: ADME; conditions: read-out: permeability
[6] = Permeability across apical to basolateral side in human Caco-2 cells at 3 uM incubated for 2 hrs by LC-MS/MS analysis; type: ADME, cell-based; conditions: read-out: permeability
[7] = Plasma protein binding in human assessed as unbound fraction at 10 uM measured for 5 hrs by equilibrium dialysis based LC-MS/MS analysis; type: ADME, cell-free
P-glycoprotein (ABCB1) = P-glycoprotein (ABCB1) (Homo sapiens, UniProt P08183); experiment: Substrate activity at P-glycoprotein in human Caco-2 cells assessed as efflux ratio of permeability across basolateral to apical side over apical to basolateral side at 3 uM incubated for 2 hrs by LC-MS/MS analysis; type: ADME, cell-based
Chain of P-glycoprotein (ABCB1) (P08183 whole entry): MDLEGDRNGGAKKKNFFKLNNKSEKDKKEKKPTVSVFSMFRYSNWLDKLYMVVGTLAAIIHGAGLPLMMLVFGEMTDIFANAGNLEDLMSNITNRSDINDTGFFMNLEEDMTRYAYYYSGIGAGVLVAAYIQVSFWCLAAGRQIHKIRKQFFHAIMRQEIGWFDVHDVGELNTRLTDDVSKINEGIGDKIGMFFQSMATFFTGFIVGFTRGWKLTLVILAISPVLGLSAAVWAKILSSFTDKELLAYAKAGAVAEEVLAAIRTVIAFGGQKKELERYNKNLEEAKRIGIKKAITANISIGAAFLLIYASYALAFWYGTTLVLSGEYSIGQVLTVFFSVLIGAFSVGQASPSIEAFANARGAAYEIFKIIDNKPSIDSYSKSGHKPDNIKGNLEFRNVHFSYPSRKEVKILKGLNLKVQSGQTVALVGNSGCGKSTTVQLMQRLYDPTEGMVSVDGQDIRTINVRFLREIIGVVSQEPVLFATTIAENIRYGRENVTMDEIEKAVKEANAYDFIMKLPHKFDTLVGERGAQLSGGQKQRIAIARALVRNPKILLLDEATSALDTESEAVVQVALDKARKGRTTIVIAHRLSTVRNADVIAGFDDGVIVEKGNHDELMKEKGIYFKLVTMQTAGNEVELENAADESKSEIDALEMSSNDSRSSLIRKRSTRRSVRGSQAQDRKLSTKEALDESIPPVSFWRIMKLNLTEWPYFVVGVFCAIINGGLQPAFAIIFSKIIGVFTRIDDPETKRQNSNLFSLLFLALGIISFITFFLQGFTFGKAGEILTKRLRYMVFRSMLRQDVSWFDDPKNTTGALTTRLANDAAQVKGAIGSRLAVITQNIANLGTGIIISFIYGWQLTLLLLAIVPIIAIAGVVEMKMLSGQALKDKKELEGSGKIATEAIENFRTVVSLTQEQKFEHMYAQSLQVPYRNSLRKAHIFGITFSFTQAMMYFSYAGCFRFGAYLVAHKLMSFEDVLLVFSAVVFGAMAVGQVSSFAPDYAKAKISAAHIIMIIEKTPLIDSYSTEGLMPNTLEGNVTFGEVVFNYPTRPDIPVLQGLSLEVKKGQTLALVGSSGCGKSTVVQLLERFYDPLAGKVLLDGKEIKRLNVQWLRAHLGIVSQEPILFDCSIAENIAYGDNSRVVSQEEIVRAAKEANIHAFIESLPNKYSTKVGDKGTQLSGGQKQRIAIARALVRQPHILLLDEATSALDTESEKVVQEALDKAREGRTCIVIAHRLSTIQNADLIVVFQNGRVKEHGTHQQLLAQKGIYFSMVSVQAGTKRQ

[8] = Metabolic stability in human liver microsomes assessed as parent compound remaining at 0.5 uM incubated for 10 mins by LC-MS/MS analysis; type: ADME, Microsome; conditions: read-out: Stability
[9] = Inhibition of tau 4R1N phosphorylation (unknown origin) at S396 residue transfected in human U2OS cells coexpressing GFP-tagged beta catenin incubated overnight by high content imaging assay
[10] = Permeability across basolateral to apical side in human Caco-2 cells at 3 uM incubated for 2 hrs by LC-MS/MS analysis; type: ADME, cell-based; conditions: read-out: permeability
[11] = Permeability of compound at pH 7.4 incubated for 4 hrs by PAMPA assay; type: ADME; conditions: read-out: permeability
[12] = Cmax in 8 hr fasted C57BL6 mouse at 10 mg/kg, po; type: ADME, organism-based; set-up: dose 10 mg/kg, route po; conditions: in vivo
[13] = AUC tot in 8 hr fasted C57BL6 mouse at 10 mg/kg, po; type: ADME, organism-based; set-up: dose 10 mg/kg, route po; conditions: in vivo
[14] = MRT in 8 hr fasted C57BL6 mouse at 2 mg/kg, iv; type: ADME, organism-based; conditions: in vivo
[15] = Half life in 8 hr fasted C57BL6 mouse at 2 mg/kg, iv; type: ADME, organism-based; conditions: in vivo
[16] = Oral bioavailability in 8 hr fasted C57BL6 mouse at 10 mg/kg; type: ADME, organism-based; conditions: in vivo
[17] = Clearance in 8 hr fasted C57BL6 mouse at 2 mg/kg, iv; type: ADME, organism-based; conditions: in vivo
[18] = Volume of distribution at steady state in 8 hr fasted C57BL6 mouse at 2 mg/kg, iv; type: ADME, organism-based; conditions: in vivo, read-out: Vdss
[19] = molecular target: Glycogen synthase kinase-3 beta (Homo sapiens, UniProt P49841); experiment: Inhibition of GSK3-beta (unknown origin)
Chain of Glycogen synthase kinase-3 beta (P49841 whole entry): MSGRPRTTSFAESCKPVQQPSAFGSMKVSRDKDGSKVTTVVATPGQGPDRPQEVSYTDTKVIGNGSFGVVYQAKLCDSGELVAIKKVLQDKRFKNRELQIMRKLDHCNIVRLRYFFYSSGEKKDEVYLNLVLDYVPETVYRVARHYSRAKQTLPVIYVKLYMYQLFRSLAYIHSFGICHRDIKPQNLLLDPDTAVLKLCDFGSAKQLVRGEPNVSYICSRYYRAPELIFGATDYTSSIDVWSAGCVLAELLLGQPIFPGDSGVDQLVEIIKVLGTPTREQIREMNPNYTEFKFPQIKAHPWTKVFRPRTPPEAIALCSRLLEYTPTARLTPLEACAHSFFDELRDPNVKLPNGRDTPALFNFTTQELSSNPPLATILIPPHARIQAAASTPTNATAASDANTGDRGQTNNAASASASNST

SMILES: O=C(Nc1cccnc1)c1ccnn2c(NCC3CC3)cnc12
- IC50 [1]: 220 nM
- IC50 [2]: 510 nM

SMILES: O=C(Nc1cccnc1)c1ccnn2cc(-c3ccccc3)nc12
- IC50 [2]: 6.7 nM

SMILES: CC1CN(c2ccncc2NC(=O)c2ccnn3ccnc23)CCO1 (centres undefined)
- IC50 [1]: 7 nM

SMILES: O=C(Nc1cnccc1N1CCOCC1)c1ccnn2c(NCC3CC3)cnc12
- IC50 [1]: 9 nM

SMILES: O=C(Nc1cnccc1-c1ccccc1)c1ccnn2c(NCC3CC3)cnc12
- IC50 [1]: 3.5 nM
- IC50 [2]: 2 nM

SMILES: CC1CN(c2ccncc2NC(=O)c2ccnn3cc(C4CC4)nc23)CCO1 (centres undefined)
- remaining at 10 min, 0.5 µM [3]: 4%
- fraction unbound at 5 h, 10 µM [4]: 0.031
- Cmax [12]: 1.3 µM
- IC50 [1]: 2.6 nM
- AUC [13]: 3.3 µM·h
- MRT [14]: 0.6 h
- half-life [15]: 1.1 h
- Papp at 4 h [5]: 86.9 ×10⁻⁶ cm/s
- bioavailability [16]: 37%
- clearance [17]: 49.5 mL/min/kg
- Papp A→B at 2 h, 3 µM [6]: 22.3 ×10⁻⁶ cm/s
- fraction unbound at 5 h, 10 µM [7]: 0.015
- efflux ratio at 2 h, 3 µM (P-glycoprotein (ABCB1)): < 1
- remaining at 10 min, 0.5 µM [8]: 3%
- Vd [18]: 1.9 L/kg
- IC50 [9]: 60 nM
- Papp B→A at 2 h, 3 µM [10]: 13.3 ×10⁻⁶ cm/s
- Papp at 4 h [11]: 107 ×10⁻⁶ cm/s

SMILES: O=C(Nc1cnccc1-c1ccc(F)cc1)c1ccnn2cc(C3CC3)nc12
- IC50 [1]: 1.9 nM
- IC50 [2]: 0.44 nM

SMILES: C[C@@H]1COCCN1c1ccncc1NC(=O)c1ccnn2cc(-c3ccccc3)nc12
- IC50 [1]: 3.4 nM

SMILES: O=C(Nc1cnccc1N1CCC(F)(F)CC1)c1ccnn2ccnc12
- IC50 [1]: 4.6 nM
- IC50 [2]: 2.4 nM

SMILES: O=C(Nc1cnc(Cl)cc1N1CCC(F)(F)CC1)c1ccnn2cc(-c3ccccc3)nc12
- IC50 [1]: 14 nM

SMILES: COc1cncc(NC(=O)c2ccnn3cc(-c4ccccc4)nc23)c1
- IC50 [1]: 37 nM
- IC50 [2]: 7.5 nM

SMILES: CC1CN(c2ccncc2NC(=O)c2ccnn3c(NCC4CC4)cnc23)CCO1 (centres undefined)
- IC50 [1]: 5.2 nM

SMILES: O=C(Nc1cnccc1-c1ccc(F)cc1)c1ccnn2cc(-c3ccccc3)nc12
- remaining at 10 min, 0.5 µM [3]: 92%
- fraction unbound at 5 h, 10 µM [4]: 0.002
- IC50 [1]: 1.6 nM
- Papp at 4 h [5]: 96 ×10⁻⁶ cm/s
- fraction unbound at 5 h, 10 µM [7]: 0.003
- IC50 [2]: 1.1 nM
- remaining at 10 min, 0.5 µM [8]: 91%

SMILES: Cc1ccncc1NC(=O)c1ccnn2c(NCC3CC3)cnc12
- IC50 [1]: 63 nM

SMILES: CC(C)Oc1ccncc1NC(=O)c1ccnn2c(NCC3CC3)cnc12
- IC50 [1]: 6.7 nM

SMILES: O=C(Nc1cnccc1-c1ccccc1)c1ccnn2cc(-c3ccccc3)nc12
- remaining at 10 min, 0.5 µM [3]: 83%
- fraction unbound at 5 h, 10 µM [4]: 0.003
- IC50 [1]: 3.6 nM
- Papp at 4 h [5]: 20.2 ×10⁻⁶ cm/s
- fraction unbound at 5 h, 10 µM [7]: < 0.001
- remaining at 10 min, 0.5 µM [8]: 79%
- IC50 [9]: 910 nM
- Papp at 4 h [11]: 28.2 ×10⁻⁶ cm/s

SMILES: Cc1ccncc1NC(=O)c1ccnn2cc(-c3ccccc3)nc12
- IC50 [1]: 3.5 nM

SMILES: C[C@H]1COCCN1c1ccncc1NC(=O)c1ccnn2cc(-c3ccccc3)nc12
- IC50 [2]: 0.32 nM

SMILES: CC(C)OCCCC(=O)c1n[nH]cc1NC(=O)c1ccccc1
- IC50 [19]: 2 nM

More lines, now with the values ahead:

- IC50 [1]: 0.13 nM
- IC50 [2]: 0.1 nM
SMILES: C[C@H]1CN(c2ccncc2NC(=O)c2ccnn3cc(-c4ccccc4)nc23)CCO1

- remaining at 10 min, 0.5 µM [3]: 36%
- fraction unbound at 5 h, 10 µM [4]: 0.002
- IC50 [1]: 0.37 nM
- Papp at 4 h [5]: 58.1 ×10⁻⁶ cm/s
- Papp A→B at 2 h, 3 µM [6]: 7 ×10⁻⁶ cm/s
- fraction unbound at 5 h, 10 µM [7]: 0.005
- IC50 [2]: 0.22 nM
- efflux ratio at 2 h, 3 µM (P-glycoprotein (ABCB1)): < 1
- remaining at 10 min, 0.5 µM [8]: 40%
- IC50 [9]: 30 nM
- Papp B→A at 2 h, 3 µM [10]: 3 ×10⁻⁶ cm/s
- Papp at 4 h [11]: 64.2 ×10⁻⁶ cm/s
SMILES: O=C(Nc1cnccc1N1CCC(F)(F)CC1)c1ccnn2cc(-c3ccccc3)nc12

- IC50 [1]: 0.57 nM
- IC50 [2]: 0.38 nM
SMILES: COc1ccccc1-c1cn2nccc(C(=O)Nc3cnccc3N3CCOC(C)C3)c2n1 (centres undefined)

- remaining at 10 min, 0.5 µM [3]: 9%
- fraction unbound at 5 h, 10 µM [4]: 0.01
- Cmax [12]: 10.7 µM
- IC50 [1]: 0.42 nM
- AUC [13]: 47 µM·h
- MRT [14]: 2.4 h
- half-life [15]: 3.1 h
- Papp at 4 h [5]: 7.8 ×10⁻⁶ cm/s
- bioavailability [16]: 100%
- clearance [17]: 10.6 mL/min/kg
- Papp A→B at 2 h, 3 µM [6]: 32.2 ×10⁻⁶ cm/s
- fraction unbound at 5 h, 10 µM [7]: 0.012
- IC50 [2]: 0.21 nM
- efflux ratio at 2 h, 3 µM (P-glycoprotein (ABCB1)): < 1
- remaining at 10 min, 0.5 µM [8]: 31%
- Vd [18]: 1.5 L/kg
- IC50 [9]: 36 nM
- Papp B→A at 2 h, 3 µM [10]: 9.9 ×10⁻⁶ cm/s
- Papp at 4 h [11]: 29.8 ×10⁻⁶ cm/s
SMILES: O=C(Nc1cnccc1N1CCOCC1)c1ccnn2cc(-c3ccccc3)nc12

- IC50 [1]: 0.43 nM
- IC50 [2]: 0.18 nM
- IC50 [9]: 120 nM
SMILES: O=C(Nc1cnccc1N1CCC(F)(F)CC1)c1ccnn2cc(C3CC3)nc12

- IC50 [1]: 1.1 nM
- IC50 [2]: 0.24 nM
SMILES: O=C(Nc1cnccc1N1CCCCC1)c1ccnn2cc(-c3ccccc3)nc12

- IC50 [1]: 0.78 nM
- IC50 [2]: 0.23 nM
SMILES: O=C(Nc1cnccc1N1CCOCC1)c1ccnn2cc(-c3ccc(C(F)(F)F)cc3)nc12

- IC50 [1]: 1.5 nM
SMILES: CS(=O)(=O)c1ccncc1NC(=O)c1ccnn2cc(-c3ccccc3)nc12

- IC50 [1]: 0.87 nM
- IC50 [2]: 1.4 nM
- IC50 [9]: 41 nM
SMILES: O=C(Nc1cnccc1N1CCC(F)(F)CC1)c1ccnn2c(NCC3CC3)cnc12

- IC50 [1]: 0.29 nM
- IC50 [2]: 0.09 nM
SMILES: O=C(Nc1cnccc1OCC(F)(F)F)c1ccnn2cc(-c3ccccc3)nc12

- IC50 [1]: 1.4 nM
- IC50 [2]: 0.57 nM
SMILES: CC1CN(c2ccncc2NC(=O)c2ccnn3cc(-c4ccc(C(F)(F)F)cc4)nc23)CCO1 (centres undefined)

- IC50 [1]: 0.7 nM
- IC50 [2]: 0.41 nM
- IC50 [9]: 83 nM
SMILES: CC(C)Oc1ccncc1NC(=O)c1ccnn2cc(-c3ccccc3)nc12

- IC50 [1]: 0.82 nM
- IC50 [2]: 0.34 nM
SMILES: C[C@@H]1CN(c2ccncc2NC(=O)c2ccnn3cc(-c4ccccc4)nc23)CCO1
